One assay concerns TMBP cells. The assay can be described thus: In vitro activation of TMBP cells by MBP, cytokine mRNA by qPCR. The assay is classed as cell-based, rat. How it is done: Myelin basic protein (MBP)-reactive CD4^+ T cells retrovirally transduced to express enhanced GFP (TMBP cells) were established as previously reported. In brief, 6–8 week old female Lewis rats were immunized subcutaneously with 150 μl of emulsion consisting of equal parts of MBP (stock concentration: 1 mg/ml) and complete Freund's adjuvant containing heat-inactivated Mycobacterium tuberculosis extract (Difco; stock concentration: 2 mg/ml). Draining lymph nodes were harvested and passed through a cell strainer (40 μm) 9–10 days after immunization. The cell suspension was co-cultured with GP + E86 packaging cell lines producing replication-deficient retroviruses in the presence of 10 μg/ml MBP. Murine IL-2 was added to the culture for T cell expansion from day 2–4 after stimulation. The cell lines underwent 3–4 cycles of stimulation before being used for in vitro and in vivo experiments. […] Upon stimulation, they produced interferon-γ and IL-17.
In vitro activation assays were performed in 96-well plates. […]. TMBP cell activation on mRNA level was determined using qPCR and on surface protein level using surface marker staining and subsequent flow cytometry analysis.
(§1) Total RNA was isolated using the standard TRIzol method. cDNA was synthesized using the RevertAid First Strand cDNA Synthesis Kit (Thermo Fisher Scientific). Quantitative PCR (qPCR) was performed using the StepOnePlus™ Real-Time PCR System (Applied Biosystems), as previously described [[23], [24], [25]]. Rat TMBP cell data were obtained from three to four independent duplicate measurements. β-actin served as housekeeping gene. Human PBMC data were obtained from two independent healthy donors and duplicate measurements (representative data of one donor are shown). HPRT served as housekeeping gene. For all probes (TaqMan), a combination of 5′-FAM and 3′-TAMRA quencher was used as described.
On the technique in general: Quantitative PCR measures a nucleic acid by following its amplification.

The subject of another assay is human PBMCs. The assay can be described thus: In vitro activation of human PBMCs by anti-CD3, interferon-γ mRNA by qPCR. The class given is cell-based. To be noted: human PBMC; anti-CD3 stimulation; 24 h; qPCR. How it is done:
In vitro activation assays were performed in 96-well plates. Briefly, 10^5 PBMCs isolated from human peripheral blood by Ficoll gradient were added onto plates coated with anti-human CD3 monoclonal antibody (5 μg ml^−1 in PBS, clone OKT3, Biolegend). 2ME2 or STX564 dissolved in DMSO were added in varying concentrations (0.01, 0.1, 1, 10 μM). […]. PBMC activation on mRNA level was determined using qPCR on samples collected 24 h after CD3 stimulation.
as §1

Assay [1] concerns SOCE in human Jurkat T cells. The assay can be described thus: cells. The assay is classed as cell-based. To be noted: Ca2+ free/Ca2+ re-addition protocol, plateau 425-475 s after re-addition of 1 mM Ca2+. On the procedure: Jurkat T-lymphocytes, primary human CD4^+ T cells and H1299 cells were pelleted at 450 ×g for 5 min, rat TMBP at 300 ×g for 8 min at room temperature and were resuspended in 1 ml of either standard JMP medium (Jurkat, H1299 and human CD4^+ T cells) or standard DMEM based medium containing 10% fetal bovine serum (FBS) (v/v) (TMBP cells). Resting TMBP cells (day 5–7 after re-stimulation) after the second to fifth re-stimulation were thawed from liquid nitrogen 12 to 40 h prior to Fura2-loading. After pre-incubation for 5 min at 37 °C, cells were incubated with 4 μM Fura2-AM for 15 min at 37 °C. After addition of the dye, cells were kept in the dark. Afterwards, cells and the dye were diluted by addition of 4 ml standard medium and incubated for another 15 min. Cells were washed twice in Ca^2+ buffer (140 mM NaCl, 5 mM KCl, 1 mM MgSO4, 1 mM CaCl2, 1 mM NaH2PO4, 20 mM HEPES, 5.5 mM glucose; pH 7.4 (NaOH), sterile filtered) and were diluted to a concentration of 2*10^6 cells/ml. Subsequently, cells were kept at room temperature for 20 min for de-esterification before the start of the first measurement.
In experiments using a Ca^2+ free/Ca^2+ re-addition protocol, cells were pelleted as described for Fura2 loading and Ca^2+ buffer was exchanged by 1 ml nominal Ca^2+ free buffer (140 mM NaCl, 5 mM KCl, 1 mM MgSO4, 1 mM NaH2PO4, 20 mM HEPES, 5.5 mM glucose; pH 7.4 (NaOH), sterile filtered) immediately before starting the measurement. The measurement was controlled by FL Solutions (Version 4.1, Hitachi High-Technologies Corporation). Fura2 was alternatively excited every 2 s at 340 ± 5 nm and 380 ± 5 nm, each 400 ms apart.
Finally, every measurement was calibrated using 0.1% (v/v) Triton X-100 to obtain a maximal ratio and 4 mM EGTA and 30 mM Tris to obtain a minimal ratio.
R is the ratio between F340 and F380. Rmin and Rmax are the minimal and maximal ratio, respectively, obtained by calibration. F380 min and F380 max are the minimal and maximal fluorescence intensity at 380 nm EX during the calibration. Finally, artefacts due to compound additions that usually could easily be identified and lasted about 8 s were deleted from the tracings using FL Solutions (Version 4.1, Hitachi High-Technologies Corporation). The fluorescence intensities of deleted data points were interpolated from those just before and after the deleted time points.
Estradiol, 2ME2 and 2ME2 derivatives were dissolved in DMSO at a concentration of 50 mM and stored at −20 °C for up to 6 months. For concentration-response curves, stock solution was freshly diluted with DMSO to obtain the same DMSO concentration of 0.2% (v/v) for all conditions.
The compound concentrations were then log transformed. Finally, the data were fitted to a corresponding nonlinear fit of variable slope using Prism 6 (GraphPad Software, USA).

The structures appear in SMILES notation. pIC50: −log10 of the molar value. Read-outs that look alike come from different tables or passages of the source. Bounds are passed on as bounds.

A word on the pIC50: it is the negative decadic logarithm of the IC50, by convention in mol/L.

As to `CCc1cc2c(cc1OS(N)(=O)=O)CC[C@@H]1[C@@H]2CC[C@]2(C)[C@@H](CC#N)CC[C@@H]12` [STX564, 2-ethyl-3-sulfamoyloxy-17β-cyanomethylestra-1,3,5(10)-triene], the “concentration at which TCR/CD3-evoked pro-inflammatory cytokine expression was significantly reduced” value with TMBP cells (TMBP cells + MBP, 6 h, qPCR) was ≥ 0.1 µM. Moreover, the “concentration at which interferon-γ expression was significantly antagonized” value in the assay with TMBP cells (TMBP cells + MBP, 6 h, qPCR, STX564 vs Synta66) was ≥ 0.1 µM. Besides, the “fold higher antagonist potency over Synta66, pro-inflammatory cytokine expression” value in the assay on TMBP cells (rat effector TMBP cells, especially INF-γ expression) is “approx. 100 fold”. In the assay on human PBMCs, the “concentration at which antagonist effects on interferon-γ expression were observed” value is ≥ 1 µM. Further, the pIC50 in assay [1] (Homo sapiens, Jurkat, read-out: IC50 of SOCE inhibition, Jurkat T cells) was 5.92; in assay [1] (read-out: IC50 of SOCE inhibition, Jurkat T cells) it was ~6.00.

(Values after publication PMC8062851, “2-Methoxyestradiol and its derivatives inhibit store-operated Ca^2+ entry in T cells: Identification of a new and potent inhibitor” (Biochimica et Biophysica Acta. Molecular Cell Research, 2021).)
